Experimental data from US20080009025A1, “PROTEIN KINASE REGULATION” (priority 1999, published 2008).
Where a SMILES comes first, the peptide text is derived from it.

Key:
PDK1 = biological target: T1, PDK1 (Homo sapiens, UniProt O15530); parameters: Full length PDK1 (residues 1-556); made in house; host or cells: 293 cells; details: ref [17]; cited from earlier work
T1 sequence (O15530 1-556): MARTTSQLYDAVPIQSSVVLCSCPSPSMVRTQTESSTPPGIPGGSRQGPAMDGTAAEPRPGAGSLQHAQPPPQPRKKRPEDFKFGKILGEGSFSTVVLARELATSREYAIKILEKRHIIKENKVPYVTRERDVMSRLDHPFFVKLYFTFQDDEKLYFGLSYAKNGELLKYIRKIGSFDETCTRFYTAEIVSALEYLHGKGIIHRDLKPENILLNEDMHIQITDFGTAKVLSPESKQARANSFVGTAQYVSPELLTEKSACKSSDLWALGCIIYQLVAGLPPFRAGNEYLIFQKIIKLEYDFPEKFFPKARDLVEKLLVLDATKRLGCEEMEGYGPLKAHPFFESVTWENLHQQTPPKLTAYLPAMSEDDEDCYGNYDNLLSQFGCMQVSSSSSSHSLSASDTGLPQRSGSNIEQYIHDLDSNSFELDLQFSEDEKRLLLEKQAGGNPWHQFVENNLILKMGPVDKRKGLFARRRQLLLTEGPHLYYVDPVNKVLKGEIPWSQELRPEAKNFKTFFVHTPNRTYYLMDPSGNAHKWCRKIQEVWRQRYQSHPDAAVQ

Myc-PDK1 = biological target: T2, Myc-PDK1 (Homo sapiens, UniProt O15530); assay: Glutathione-Sepharose pull-down of Myc-PDK1 with GST-PIF from 293 cells; type: binding
T2 construct: expressed in transfected cells; host or cells: 293 cells
T2 sequence (O15530 1-556): T1 sequence (O15530 1-556)
Experimental: FIG. 9. Effect of mutation of conserved residues in the PIF-binding pocket of PDK1 on the ability to interact with PIF. 293 cells were transiently transfected with DNA constructs expressing GST-PIF and either wild type Myc-PDK1 or the indicated mutants of PDK1. 36 h post transfection the cells were lysed and GST-PIF purified by affinity chromatography on glutathione-Sepharose beads. 2 μg of each protein was electrophoresed on a 10% SDS/polyacrylamide gel and either stained with Coomassie blue (A and E) or immunoblotted using an anti Myc antibody to detect Myc-PDK1 (B and F). To establish that the wild type PDK1 and mutant proteins were expressed at a similar level, 10 μg of total cell lysate was electrophoresed on a 10% SDS/polyacrylamide gel and immunoblotted using anti-Myc antibodies (C and G). Duplicates of each condition are shown. Similar results were obtained in 3 to 5 separate experiments. […]
A pEBG2T plasmid encoding GST fused to the last 77 residues of PRK2 termed GST-PIF (10 μg) and pCMV5 plasmid expressing Myc-PDK1 wild type or the indicated mutants of PDK1 (10 μg), were co-transfected into a 10 cm diameter dish of 293 cells using a modified calcium phosphate method. […] The gels were either stained with Coomassie blue, or analysed by immunoblotting with anti Myc antibodies.

Row | Compound | increase in the rate at which PDK1 phosphorylated T308tide (PDK1) [fold] | complex with wild type PDK1 (Myc-PDK1)
1 | CC[C@H](C)[C@H](NC(=O)[C@H](Cc1ccc(O)cc1)NC(=O)[C@H](CC(=O)O)NC(=O)[C@H](Cc1ccccc1)NC(=O)[C@H](CC(=O)O)NC(=O)[C@H](CCCNC(=N)N)NC(=O)[C@H](Cc1ccccc1)NC(=O)[C@H](CCSC)NC(=O)[C@H](CCC(=O)O)NC(=O)[C@H](CCC(N)=O)NC(=O)[C@H](CCC(=O)O)NC(=O)[C@H](CCC(=O)O)NC(=O)[C@H](CCC(=O)O)NC(=O)[C@H](CO)NC(=O)[C@H](CC(C)C)NC(=O)[C@@H](NC(=O)[C@H](CCCNC(=N)N)NC(=O)[C@@H]1CCCN1C(=O)[C@H](CCC(=O)O)NC(=O)[C@@H](N)CCCNC(=N)N)[C@@H](C)CC)C(=O)N[C@@H](C)C(=O)N[C@@H](CC(=O)O)C(=O)N[C@@H](Cc1c[nH]c2ccccc12)C(=O)N[C@@H](CS)C(=O)O [PIFtide] (H-REPRILSEEEQEMFRDFDYIADWC-OH; N-terminus and C-terminus assumed) | 4 | 
2 | GST-PIF: glutathione S-transferase fused to the last 77 residues of PRK2 (PIF) |  | a complex was readily observed
